The values that follow come from paper PMC4306314, “Differential neuroprotective potential of CRMP2 peptide aptamers conjugated to cationic, hydrophobic, and amphipathic cell penetrating peptides” (Frontiers in Cellular Neuroscience, 2015).

For orientation: IC50 means the concentration needed to halve the response being measured.

Read-outs that look alike come from different tables or passages of the source. Where no end group is shown, it is not given here.

In data set [1] the test system is cortical neurons. As to the kind of experiment: Glutamate-induced toxicity, chromogenic cell viability assay. It counts as cell-based, rat. The conditions noted are these: for Prevention of Glu/Gly-induced neuronal cell death by NMDAR subunit blockers: Ifenprodil 1 µM, Peaqx 5 µM, 10 min before and during 200 µM glutamate/20 µM glycine 30 min, 7 DIV, viability 24 h later, 32 wells. As for the experimental part:
E19 neurons (grown in 96 well plates) were stimulated with 200 µM glutamate/20 µM glycine to induce neuronal death as previously described with modifications (Brittain et al., [2011a]). Neurons were pre-treated with peptides by removing half of the culture medium and replacing with fresh medium containing twice the final concentration of peptide. Neurons were then stimulated by removing half the medium and replacing with fresh medium containing 400 µM glutamate/40 µM glycine and 1X peptide concentration. Following a 30 min stimulation the medium was completely removed and replaced with half fresh/half conditioned medium. Cell viability was quantified 24 h later using the 3-(4,5-dimethylthiazol-2-yl)-5-(3-carboxymethoxyphenyl)-2-(4-sulfophenyl)-2H-tetrazolium cell viability assay (Promega, Madison, WI, USA) as previously described (Brittain et al., [2011a]). Subunit-specific NMDAR antagonists Peaqx (NR2A) and Ifenprodil (NR2B) were purchased from Sigma.

The subject of data set [2] is GPMVs derived from cortical neurons. Description: Peptide penetration into giant plasma membrane vesicles (GPMVs), di-4-ANEPPDHQ staining. The class given is in vitro ADME, rat. To be noted: 10 µM peptide; for Change in percent of GPMVs with intracellular staining, vesicles from Glu/Gly-challenged vs unchallenged cells: neurons challenged 1 h with 200 µM glutamate + 20 µM glycine before vesiculation. The procedure: Giant plasma membrane vesicles (GPMVs) were obtained as previously described in Sezgin et al. ([2012]). Briefly, GPMVs were generated from cortical neurons incubated at 37°C for 90 min in a vesiculation buffer containing 10 mM HEPES, 150 mM NaCl, 2 mM CaCl2, pH 7.4 containing 2 mM N-ethyl maleimide (NEM). After GPMV formation, the buffer containing vesicles was recovered and conserved at 4°C for at least 2 h to allow the vesicles to concentrate at the bottom of the tube. As the GPMVs were stable for ~48 h (data not shown), they were used the day after formation at the latest.
All experiments for microscopic analyses of GPMVs were performed on 35 mm glass bottom dishes pre-coated with BSA (1 mg/mL for 1 h at room temperature). Approximately 100 µL of GMPVs labeled with 5 µM di-4-ANEPPDHQ were incubated for 3 h at room temperature with 10 µM of CBD3 peptide aptamers. di-4-ANEPPDHQ, a styryl dye that was originally developed to detect transmembrane potential changes, is considered to be a good probe for rafts (Jin et al., [2005]) and was used to label GPMVs. di-4-ANEPPDHQ is able to partition into both liquid-ordered and liquid-disordered phase domains in model membranes, reacts to the environmental difference between the two phases via conformational changes, thus resulting in different fluorescence properties (Jin et al., [2005]). Here, we studied the 500–550 nm emission of the probe, which accounts largely for the liquid ordered phase.
Fluorescence imaging was performed with an inverted microscope, Nikon Eclipse TE2000-U, using objective Nikon Super Fluor 20× 0.75 NA and a Photometrics cooled CCD camera CoolSNAPHQ-ES2 (Roper Scientific, Tucson, AZ, USA) controlled by MetaFluor 6.3 software (Molecular Devices, Downingtown, PA, USA). […] Twenty images of each condition were systematically recorded randomly, using a FITC filter (excitation and emission wavelength 488 nm and 500–550 nm, respectively), which accounted for the liquid ordered contribution of di-4-ANEPPDHQ or the localization of FITC-peptides.

Data set [3] relates to cortical neurons. As to the kind of experiment: Uptake and efflux of FITC-labeled CBD3 peptides from cortical neurons. The conditions noted are these: for Cumulative efflux (AUC), glutamate-challenged vs unchallenged cells, long-term application: chronic peptide treatment, media sampled up to 3 h. The class given is in vitro ADME, rat. The procedure:
Cortical neurons were seeded into 96-well plates at 3.5 × 10^4 cells per well and cultured until 7 DIV at 37°C and 5% CO2. […] After four washes with phenol red free Leibovitz medium, the FITC fluorescence in the cells was measured using a Synergy 2 fluorescent plate reader (Biotek, Winooski, VT, USA) at an excitation wavelength of 485 nm and emission wavelength of 530 nm. […] To correct for any differences in cell plating, at the end of the experiment cortical neurons were lysed with 20 mM Tris, pH 7.4, 50 mM NaCl, 1% NP40, 0.5% sodium deoxycholate, 0.1% SDS Protease inhibitor cocktail set III (Calbiochem), phosphatase inhibitor cocktail set I (Calbiochem), 50 U/ml benzonase (Merck) and the protein quantity determined with a Pierce assay.

For data set [4] the following is noted: of the CPP itself; ref Sarko et al., 2010; cited from earlier work.
The next data set concerns the target T1, CRMP2-NR2B interaction (Rattus norvegicus, UniProt Q00960).
T1 construct: Rat brains were lysed into the immunoprecipitation buffer; from tissue; host or cells: rat brain
As to the kind of experiment: Co-immunoprecipitation of NR2B with CRMP2 from rat brain lysates. The conditions noted are these: 10 µM peptide, overnight 4°C, rat brain lysate, immunoblot, n = 4. It counts as binding. As for the experimental part: Rat brains were lysed into the immunoprecipitation buffer containing 20 mM Tris-HCl pH 7.4, 50 mM NaCl, 2 mM MgCl2, 1% (vol/vol) NP40, 0.5% (mass/vol) sodium deoxycholate with Protease/phosphatase inhibitors cocktails (Calbiochem) and Benzonase (50 U/mL^−1), using a dounce homogenizer. The lysates were clarified by centrifugation at 10000 g, 10 min, 4°C then total protein concentration was determined by BCA protein assay (Cat# PI23225, Thermo scientific). For the co-immunoprecipitation, 300 µg of total protein was incubated with 1 µg of CRMP2 antibody (Cat# C2993, Sigma, St. Louis, MO, USA) of non-specific rabbit IgG, in the presence of 10 µM of the indicated peptides and incubated overnight at 4°C under gentle agitation. Protein G magnetic beads (Cat# 10004D, Life Technologies) pre-equilibrated with the immunoprecipitation buffer, were added to the mixture and allowed to incubate for 1 h at 4°C to capture the immuno-complexes. The beads were washed four times with the immunoprecipitation buffer before re-suspension in Laemmli buffer and boiling at 95°C for 5 min prior to immunoblotting.
Indicated samples were loaded on 4–12% NuPAGE® gels (Life Technologies). […] Films were scanned, and quantified using Un-Scan-It gel version 6.1 scanning software (Silk Scientific Inc, Orem, UT, USA).
(In general: A western blot detects proteins with antibodies after separation by electrophoresis.)

On the set-up of data set [5]: method as in Wender et al., 2000. The conditions noted are these: ref Wender et al., 2000; cited from earlier work.

T1 sequence (Q00960 27-1482, other chains not shown): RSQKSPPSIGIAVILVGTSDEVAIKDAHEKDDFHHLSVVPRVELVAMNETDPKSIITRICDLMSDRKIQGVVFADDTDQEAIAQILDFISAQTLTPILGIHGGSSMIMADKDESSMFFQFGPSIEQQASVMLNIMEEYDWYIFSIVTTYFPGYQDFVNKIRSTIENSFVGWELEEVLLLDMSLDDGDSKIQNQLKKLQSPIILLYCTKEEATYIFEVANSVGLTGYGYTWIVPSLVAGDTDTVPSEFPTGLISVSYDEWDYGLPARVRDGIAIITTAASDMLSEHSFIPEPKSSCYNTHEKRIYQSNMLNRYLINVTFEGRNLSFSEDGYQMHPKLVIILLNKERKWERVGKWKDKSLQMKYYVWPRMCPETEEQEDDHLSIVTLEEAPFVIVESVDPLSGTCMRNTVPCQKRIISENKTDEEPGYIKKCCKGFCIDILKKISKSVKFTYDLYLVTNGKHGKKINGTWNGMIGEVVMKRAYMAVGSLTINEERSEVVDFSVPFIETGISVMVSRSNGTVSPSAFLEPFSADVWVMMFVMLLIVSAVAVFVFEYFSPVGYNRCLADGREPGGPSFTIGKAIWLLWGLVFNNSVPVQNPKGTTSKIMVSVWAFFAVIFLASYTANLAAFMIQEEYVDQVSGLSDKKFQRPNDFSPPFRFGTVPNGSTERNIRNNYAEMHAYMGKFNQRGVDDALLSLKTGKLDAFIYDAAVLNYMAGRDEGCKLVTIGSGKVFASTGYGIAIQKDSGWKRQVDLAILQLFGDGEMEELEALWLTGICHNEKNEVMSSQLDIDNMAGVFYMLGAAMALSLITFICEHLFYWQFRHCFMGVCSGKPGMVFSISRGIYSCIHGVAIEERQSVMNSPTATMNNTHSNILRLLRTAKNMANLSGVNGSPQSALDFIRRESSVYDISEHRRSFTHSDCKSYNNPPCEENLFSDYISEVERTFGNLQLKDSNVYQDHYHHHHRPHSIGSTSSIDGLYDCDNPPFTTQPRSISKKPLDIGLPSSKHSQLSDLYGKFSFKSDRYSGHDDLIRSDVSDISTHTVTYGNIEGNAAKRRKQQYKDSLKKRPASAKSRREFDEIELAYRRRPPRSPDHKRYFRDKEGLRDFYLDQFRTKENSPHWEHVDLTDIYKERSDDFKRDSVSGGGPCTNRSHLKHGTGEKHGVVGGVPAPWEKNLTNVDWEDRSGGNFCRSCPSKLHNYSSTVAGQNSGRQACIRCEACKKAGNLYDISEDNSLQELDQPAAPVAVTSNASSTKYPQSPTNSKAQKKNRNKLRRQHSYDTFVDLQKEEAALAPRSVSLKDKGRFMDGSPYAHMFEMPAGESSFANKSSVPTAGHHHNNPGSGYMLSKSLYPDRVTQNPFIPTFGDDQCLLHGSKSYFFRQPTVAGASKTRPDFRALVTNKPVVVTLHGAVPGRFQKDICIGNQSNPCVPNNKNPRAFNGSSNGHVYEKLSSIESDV

Regarding `C[C@H](NC(c1cccc2[nH]c(=O)c(=O)[nH]c12)P(=O)(O)O)c1ccc(Br)cc1` (some centres unmarked) [Peaqx, reference compound], the “Prevention of Glu/Gly-induced neuronal cell death by NMDAR subunit blockers” value in the data set on cortical neurons [1] is reported as “not”.

With YGRKKRRQRRRARSRLAELRGVPRGL [TAT-CBD3], in data set [2] (GPMVs from control (untreated) cortical neurons, 5 µM di-4-ANEPPDHQ, room temperature, 3 h (methods) or 60 min, fluorescence microscopy, n = 2 experiments), the “Percent of GPMVs exhibiting lumenal accumulation of smaller vesicles” value is ~ 54%. For the same molecule, the “Change in percent of GPMVs with intracellular staining, vesicles from Glu/Gly-challenged vs unchallenged cells” value in data set [2] was “did not alter”. Besides, the “Efflux fluorescence compared to MTS-CBD3-treated cells, long-term application” value with cortical neurons [3] (1, 2 and 3 h post peptide application, irrespective of excitotoxic challenge) is “lower”. Besides, in the data set on cortical neurons [3], the “Cumulative efflux (AUC), glutamate-challenged vs unchallenged cells, long-term application” value is reported as “indistinguishable”. Moreover, the IC50 with cortical neurons [1] (concentration-response viability curve, four-parameter fit, variable Hill slope, 32 wells from two experiments, extrapolated, read-out: IC50 for inhibition of glutamate-mediated toxicity) was 3.2 µM.

As to KLALKLALKALKAALKLA [MAP], in data set [4], the “Half-life (t1/2)” value is listed as greater than 72 h.

In the case of AAVALLPAVLLALLAP [MTS], the “Half-life (t1/2)” value in data set [4] is ~ 48 h.

Take RRRRRRRRRARSRLAELRGVPRGL [R9-CBD3]: the “Inhibition of NR2B-CRMP2 interaction relative to no peptide control” value on CRMP2-NR2B interaction is ~ 80%. In the data set with cortical neurons [1] (24 h), this molecule displayed an IC50 of roughly 0.564 µM.

In the case of RRRRRRRRR [R9, nona-arginine], the “Penetration compared to TAT” value in data set [5] is listed as “greater than 20 fold”. In data set [4], the “Half-life (t1/2)” value is on record as ~ 2 h.

Consider YGRKKRRQRRR [TAT], for which, in data set [4], the “Half-life (t1/2)” value was ~ 9 h.

On to “AAVALLPAVLLALLAPARSRLAELRGVPRGL [MTS-CBD3]”, for which, in data set [2], the “Change in percent of GPMVs with intracellular staining, vesicles from Glu/Gly-challenged vs unchallenged cells” value is “did not alter”. The “Cumulative efflux (AUC), glutamate-challenged vs unchallenged cells, long-term application” value with cortical neurons [3] is listed as ~ 24%.

As to `CC(C(O)c1ccc(O)cc1)N1CCC(Cc2ccccc2)CC1` (centres unmarked) [Ifenprodil, reference compound], the “Prevention of Glu/Gly-induced neuronal cell death by NMDAR subunit blockers” value in the data set with cortical neurons [1] is “completely prevent”.

For “KLALKLALKALKAALKLAARSRLAELRGVPRGL [MAP-CBD3]”, at CRMP2-NR2B interaction, the “Inhibition of NR2B-CRMP2 interaction relative to no peptide control” value was ~ 60%.
